The source of these data is patent US8217189B2, “Chromenone potassium channel blockers and uses thereof” (Bionomics Limited, priority 2006, dated 2012).

In this assay the target is T1, human Kv1.3 ion channel (Homo sapiens, UniProt P22001).
T1 construct: Human Jurkat cells (which endogenously express hKv1.3) were used in place of rat L929 cells; endogenous in cells; host or cells: human Jurkat cells
Description: Inhibition of Kv1.3 currents, planar patch clamp in human Jurkat cells. It counts as cell-based. Particulars: Jurkat cells endogenously expressing hKv1.3, averaged dose response data from 3 or more cells. On the procedure: Potency of compounds to inhibit the human Kv1.3 ion channel were determined as follows:
EC50 values for inhibition of Kv1.3 currents were determined by the method according to Schmitz et al (2005) Molecular Pharmacology 68, 1254-1270 with the following differences:
1. Human Jurkat cells (which endogenously express hKv1.3) were used in place of rat L929 cells.
2. All electrophysiology was performed using planar patch clamp (Port-A-Patch, Nanion Technologies Gmbh, Munich) in contrast to conventional patch clamp.
3. EC50 values shown were determined from averaged dose response data obtained from 3 or more cells.
For orientation: Patch clamp records ionic current or voltage across a cell membrane.

T1 sequence (P22001 whole entry): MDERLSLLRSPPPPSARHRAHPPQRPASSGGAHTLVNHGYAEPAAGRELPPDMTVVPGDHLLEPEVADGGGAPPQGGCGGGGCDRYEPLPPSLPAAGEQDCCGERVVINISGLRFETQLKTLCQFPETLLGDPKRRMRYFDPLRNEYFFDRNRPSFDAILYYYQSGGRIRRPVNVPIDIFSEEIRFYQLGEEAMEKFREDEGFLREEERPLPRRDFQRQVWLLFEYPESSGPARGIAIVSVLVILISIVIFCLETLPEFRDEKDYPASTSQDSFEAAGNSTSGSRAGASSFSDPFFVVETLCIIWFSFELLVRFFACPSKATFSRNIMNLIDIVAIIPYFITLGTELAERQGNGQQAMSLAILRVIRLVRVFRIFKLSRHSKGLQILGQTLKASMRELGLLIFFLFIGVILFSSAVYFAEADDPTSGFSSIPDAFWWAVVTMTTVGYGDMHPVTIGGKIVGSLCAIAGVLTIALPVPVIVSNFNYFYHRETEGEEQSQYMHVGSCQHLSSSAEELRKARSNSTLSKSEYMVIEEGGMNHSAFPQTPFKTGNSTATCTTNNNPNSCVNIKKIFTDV

In general, EC50 refers to the midpoint of the concentration-response curve. Turning to `CSCc1cc(=O)c2c(C)c3ccoc3c(OCCCc3ccccc3)c2o1` [1 c)], a half-maximal response (EC50) required 0.03 µM. Regarding `Cc1c2ccoc2c(OCCCc2ccc(F)cc2)c2oc(CN(C)C)cc(=O)c12` [6 c)], the midpoint of the response, the EC50, lay at 0.028 µM. The figure for `COc1c2ccoc2c(OCCCc2ccccc2)c2oc(CN(C)C)cc(=O)c12` [7 c)] is 0.27 µM; for `Cc1c2ccoc2c(OCC[C@@H](C)c2ccccc2)c2oc(CN(C)C)cc(=O)c12` [8 d)] it is 0.014 µM; for `Cc1c2ccoc2c(OCCCc2ccccc2)c2oc(CN(C)C)cc(=O)c12` [Example 2, 7-Dimethylaminomethyl-4-methyl-9-(3-phenylpropoxy)furo[3,2-g]chromen-5-one] it is 0.029 µM.

Molecule `Cc1c2ccoc2c(OCCCc2ccccc2)c2oc(CN3CCOCC3)cc(=O)c12` [Example 3, 4-Methyl-7-(morpholin-4-ylmethyl)-9-(3-phenylpropoxy)furo[3,2-g]chromen-5-one] came in with an EC50 of 0.19 µM. The figure for `CN(C)Cc1cc(=O)c2c(OCCCCOc3ccccc3)c3ccoc3cc2o1` [Example 5, 7-Dimethylaminomethyl-4-(4-phenoxybutoxy)-furo[3,2-g]chromen-5-one] is 1.42 µM; for `Cc1c2ccoc2c(OCCCc2ccccc2)c2oc(CS(C)(=O)=O)cc(=O)c12` [Example 9, 7-Methanesulfonylmethyl-4-methyl-9-(phenyl-propoxy)-furo[3,2-g]chromen-5-one] it is 0.2 µM.
